These results are taken from publication PMC7927403, “Structure‐based identification of dual ligands at the A2AR and PDE10A with anti‐proliferative effects in lung cancer cell‐lines” (Journal of Cheminformatics, 2021).

For assay [1], the target named is T1, PDE10A (Homo sapiens, UniProt Q9Y233).
T1 construct: purchased BPS Bioscience, San Diego, CA
Description: PDE10A inhibition assay (BPS Bioscience PDE10A assay kit). The format is biochemical. The following applies: concentration-response at PDE10A. The text has this: 400 pg of purified PDE10A was used per reaction, and the plates were read using a TECAN infinite M200.

Assay [2] concerns the target T2, A3R (Homo sapiens, UniProt P0DMS8).
T2 construct: expressed in transfected cells
T2 sequence (P0DMS8 1-318): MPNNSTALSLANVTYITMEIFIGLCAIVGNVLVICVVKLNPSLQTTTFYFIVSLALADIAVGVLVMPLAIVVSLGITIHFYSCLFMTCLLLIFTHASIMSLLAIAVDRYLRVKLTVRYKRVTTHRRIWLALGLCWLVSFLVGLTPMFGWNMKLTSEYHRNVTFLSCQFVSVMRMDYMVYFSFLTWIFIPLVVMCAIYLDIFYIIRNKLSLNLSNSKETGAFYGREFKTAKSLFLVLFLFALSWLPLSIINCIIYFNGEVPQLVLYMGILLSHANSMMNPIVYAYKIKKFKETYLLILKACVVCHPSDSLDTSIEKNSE
Description: cAMP inhibition in CHO-K1-A3R cells co-stimulated with forskolin. The assay is classed as cell-based.

In assay [3] the test system is CHO-K1-A2AR cells. Description: Proliferation assay (CCK-8) in CHO-K1-A2AR cells. The format is cell-based. The following applies: for IC50: read-out: pIC50 anti-proliferative effect (converted). The protocol: (§1) To test the effect of compounds 1–6 upon proliferation, various cell types were seeded onto clear 96-well plates at proper densities for each; CHO-K1 (2000 cells well^− 1), CHO-K1-A2AR (2000 cells well^− 1), H520 (2500 cells well^− 1), H1563 (2500 cells well^− 1), H1792 (2500 cells well^− 1), LK-2 (2500 cells well^− 1). This was done in suitable media, and they were cultured for 24 hours. After the subsequent addition of compounds 1–6 (ranging 316 nM − 100 µM), cells were allowed to grow further for 72 hours. Quantification of changes in cell number was done by adding 5 µl CCK-8 reagent to each well, accompanied by incubation at 37 °C for 1–3 hours. The determination of OD450 was done using a Mithras LB940 micro-plate reader at 450 nm.
(§2) Data analysis was performed using GraphPad Prism 8.2.1 (San Diegeo, CA). […] As for proliferation assays, the normalization of all data was done relative to the responses obtained upon treating cells with 1 % (v/v) DMSO. Subsequently, a three-parameter logistic equation was used for fitting each set of normalized data β-galactosidase or cAMP data, in order to calculate pEC50/pIC50 and Emax values. Also, the fitting of the proliferation data was done using a three-parameter logistic equation constraining the basal value to 100 and the system maximum to the IMax value obtained for compound 2, since it elicited the maximum inhibition of cellular proliferation in all cell types tested. A one-way ANOVA with Dunnett’s post-test, or Student’s t-test was used to assess the statistical significance for all assays, where p < 0.05 was considered to be significant.

Assay [4] deals with CHO-K1 cells. As to the kind of experiment: Proliferation assay (CCK-8) in CHO-K1 cells. The following applies: for IC50: Cricetulus griseus, CHO-K1, 72 hours, read-out: pIC50 anti-proliferative effect (converted). The format is cell-based. As to the method: as §1, §2
Assay [5] relates to LK-2 cells. As to the kind of experiment: cAMP accumulation in LK-2 cells. The format is cell-based. The following applies: Homo sapiens. The text has this:
(§3) Fig. 7 Lung squamous cell carcinoma and adenocarcinoma cells display increasing sensitivity to compounds 1, 3–5 in terms of proliferation, dependent upon combined A2AR and PDE10A expression. […] Data represented as a percentage of the cell number present after treatment with 1 % DMSO, ± SEM of 4–8 replicates. (B) Correlation plot for pEC50 of each compounds ability to stimulate cAMP production vs. its pIC50 for inhibiting proliferation. Data represented ± SEM. (C) Proliferation factor (pIC50 x span anti-proliferative Additional file 1: Table S5) calculated for 1, 3–6, CGS21680s and forskolin at LK-2, H520, H1792 and H1563 cells. Bars represent the mean Imax ± SEM, whilst individual data points are shown as a scatter plot.
(In general: Changes in cAMP serve as a functional read-out for many G protein-coupled receptors.)

The test system of assay [6] is H520 cells. Description: cAMP accumulation in H520 cells. The assay is classed as cell-based. The following applies: Homo sapiens.
Description: as §3

Assay [7] deals with H1792 cells. As to the kind of experiment: cAMP accumulation in H1792 cells. The assay is classed as cell-based. The note with it: Homo sapiens.
Description: as §3

In assay [8] the test system is H1563 cells. Description: cAMP accumulation in H1563 cells. The assay is classed as cell-based. The following applies: Homo sapiens.
Description: as §3

Assay [9] relates to LK-2 cells. Description: Proliferation assay (CCK-8) in LK-2 cells. The format is cell-based, human. The following applies: for IC50: Homo sapiens, LK-2, 72 hours, read-out: pIC50 anti-proliferative effect (converted). As to the method: as §1, §2
The subject of assay [10] is H520 cells. Description: Proliferation assay (CCK-8) in H520 cells. The format is cell-based, human. The note with it: for Imax anti-proliferative effect: H520, 10 μM agonist relative to 1% DMSO treatment; for IC50: Homo sapiens, NCI-H520, H520, 72 hours, read-out: pIC50 anti-proliferative effect (converted). The protocol: as §1, §2
In assay [11] the test system is H1792 cells. As to the kind of experiment: Proliferation assay (CCK-8) in H1792 cells. The note with it: for Imax anti-proliferative effect: H1792, 10 μM agonist relative to 1% DMSO treatment; for IC50: Homo sapiens, NCI-H1792, H1792, 72 hours, read-out: pIC50 anti-proliferative effect (converted). The format is cell-based, human. The protocol:
as §1, §2

Assay [12] relates to H1563 cells. As to the kind of experiment: Proliferation assay (CCK-8) in H1563 cells. The assay is classed as cell-based, human. The following applies: for Imax anti-proliferative effect: H1563, 10 μM agonist relative to 1% DMSO treatment; for IC50: Homo sapiens, NCI-H1563, H1563, 72 hours, read-out: pIC50 anti-proliferative effect (converted). The protocol:
as §1, §2

Assay [13] relates to A2AR. More on the design: method as in ChEMBL. The following applies: confidence score equal to 9; ref ChEMBL; read-out: IC50 (A2AR antagonist); cited from earlier work.
The target of assay [14] is T3, Nluc-A2AR (Homo sapiens, UniProt P29274).
T3 construct: expressed in transfected cells; host or cells: HEK293T
T3 sequence (P29274 whole entry): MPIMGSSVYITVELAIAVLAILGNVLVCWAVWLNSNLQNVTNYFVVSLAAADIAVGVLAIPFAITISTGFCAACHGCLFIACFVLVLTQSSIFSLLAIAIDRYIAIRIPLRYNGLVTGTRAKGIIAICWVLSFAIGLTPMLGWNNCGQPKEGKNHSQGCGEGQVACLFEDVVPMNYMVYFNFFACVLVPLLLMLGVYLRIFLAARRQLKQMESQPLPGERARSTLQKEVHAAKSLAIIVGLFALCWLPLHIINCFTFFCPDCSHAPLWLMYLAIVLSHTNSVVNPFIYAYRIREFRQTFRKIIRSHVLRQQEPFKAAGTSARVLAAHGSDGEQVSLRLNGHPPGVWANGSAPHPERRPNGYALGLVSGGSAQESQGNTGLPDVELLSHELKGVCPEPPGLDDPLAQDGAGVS
As to the kind of experiment: NanoBRET ligand binding assay, competition with CA200645 in HEK293T cells. A general note: Bioluminescence resonance energy transfer reports proximity on the nanometre scale.
Description: We sought to validate the docking studies by quantifying the affinity of each compound at the A2AR using a NanoBRET binding assay. In this experiment, we used N-terminally tagged A2AR with Nanoluciferase (Nluc) that will emit bioluminescence in close proximity with the fluorescent probe, CA200645, in the presence of Nluc substrate. Firstly, we determine the affinity constant of CA200645 in our expression system. […] We next extended our studies to use a classical competition binding assay ([43, 44]) where non-fluorescent ligands compete for binding at the Nluc-A2AR with CA200645. […] HEK293T cells were seeded in 6-well plates at density of 10^6 cells/well and grown overnight at 37 °C in DMEM/F12 medium supplemented with 10 % FBS and 1 % antibiotic/antimycotic. […]
For association-dissociation kinetic experiments, following furimazine incubation, 40 nM of CA200645 (purchased from Hello Bio, Bristol, UK) was added and the plate was immediately read. […] BRET signal was recorded for either 50 minutes or 20 minutes, for kinetic experiments or competition assay as appropriate, on a Mithras LB940 plate reader allowing sequential integration of signal detected from fluorescent probe CA200645 and Nluc. […] Ligand-induced ΔBRET was used to construct the association-dissociation kinetic of the fluorescence probe and competition binding curve of unlabelled ligands. […]

Bounds are passed on as bounds.

T1 sequence (Q9Y233 1-779 isoform Q9Y233-1): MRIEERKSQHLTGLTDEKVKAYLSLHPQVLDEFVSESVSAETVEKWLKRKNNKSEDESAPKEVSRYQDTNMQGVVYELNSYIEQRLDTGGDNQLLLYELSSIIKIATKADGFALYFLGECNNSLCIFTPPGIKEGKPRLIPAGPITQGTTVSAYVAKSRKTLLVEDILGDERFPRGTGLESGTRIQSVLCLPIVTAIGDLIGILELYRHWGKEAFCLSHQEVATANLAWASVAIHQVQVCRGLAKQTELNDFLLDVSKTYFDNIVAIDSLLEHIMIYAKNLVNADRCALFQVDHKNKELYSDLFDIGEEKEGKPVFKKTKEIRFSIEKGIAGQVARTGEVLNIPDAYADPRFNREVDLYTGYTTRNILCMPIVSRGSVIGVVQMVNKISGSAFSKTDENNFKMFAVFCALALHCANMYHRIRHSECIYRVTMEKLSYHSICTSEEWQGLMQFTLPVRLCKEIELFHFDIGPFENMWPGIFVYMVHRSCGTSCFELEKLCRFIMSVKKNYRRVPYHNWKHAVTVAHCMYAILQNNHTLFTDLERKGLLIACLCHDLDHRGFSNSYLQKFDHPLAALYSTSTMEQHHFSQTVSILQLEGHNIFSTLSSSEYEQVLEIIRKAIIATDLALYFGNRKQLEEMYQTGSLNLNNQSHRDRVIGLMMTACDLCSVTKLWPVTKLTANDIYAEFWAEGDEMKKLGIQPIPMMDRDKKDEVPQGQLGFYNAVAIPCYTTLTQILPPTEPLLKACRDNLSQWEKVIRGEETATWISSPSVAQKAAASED

For orientation: Emax means the size of the effect at its maximum, as opposed to the concentration needed. In the case of `CCNC(=O)[C@H]1O[C@@H](n2cnc3c(N)nc(NCCc4ccc(CCC(=O)O)cc4)nc32)[C@H](O)[C@@H]1O` [CGS21680], the “activity at PDE10A” value in [1] is “no significant activity”. Besides, the “A3R functional activity” value in [2] is “agonist activity”. For the same compound, the IC50 in assay [3] (CHO-K1-A2AR, 72 hours) is above 100 µM; in assay [4], above 100 µM; in [9], above 100 µM; in assay [10], above 100 µM; in assay [11], above 100 µM; in assay [12], 214 µM. The “anti-proliferative effect” value in assay [3] (CHO-K1 and CHO-K1-A2AR cells, 72 hours, CCK-8) is listed as “no anti-proliferative effects”. Besides, the EC50 is 14.5 µM in assay [5] (0.5 h, LK-2, 30 minutes, read-out: pEC50 cAMP accumulation (converted)); 3.31 µM in [6] (NCI-H520, 0.5 h, H520, 30 minutes, read-out: pEC50 cAMP accumulation (converted)); 3.02 µM in assay [7] (NCI-H1792, 0.5 h, H1792, 30 minutes, read-out: pEC50 cAMP accumulation (converted)); 4.57 µM in assay [8] (NCI-H1563, 0.5 h, H1563, 30 minutes, read-out: pEC50 cAMP accumulation (converted)). Besides, the Emax in [5] (LK-2, percentage of 100 μM forskolin) was found to be 7.64 ± 1.6%; in [6] (NCI-H520, H520, percentage of 100 μM forskolin) it was 20.8 ± 1%; in assay [7] (NCI-H1792, H1792, percentage of 100 μM forskolin) it was 27.3 ± 2.1%; in assay [8] (NCI-H1563, H1563, percentage of 100 μM forskolin) it was 15.6 ± 1.6%. Also, the Imax anti-proliferative effect was -3.55±2.6% in [9] (LK-2, 10 μM agonist relative to 1% DMSO treatment); 0.55±2.0 % in [10]; -4.07±1.6 % in [11]; 18.87±1.8 % in assay [12].

Turning to `COc1ccccc1Cn1cc2nc(-c3ccc(C)o3)nc(N)c2n1` [CHEMBL3799351], the IC50 in assay [13] was 0.00435 µM.

`C=C[C@@]1(C)CC(=O)[C@]2(O)[C@@]3(C)[C@@H](O)CCC(C)(C)[C@@H]3[C@H](O)[C@H](OC(C)=O)[C@@]2(C)O1` [Forskolin]: the IC50 is 37.2 µM in assay [3] (CHO-K1-A2AR, 72 hours); 34.7 µM in assay [4]; 324 µM in assay [9]; 85.1 µM in assay [10]; 186 µM in assay [11]; 148 µM in assay [12]. The Imax anti-proliferative effect in [3] (CHO-K1-A2AR, 10 μM agonist relative to 1% DMSO treatment) was found to be 58.96±2.2; in assay [4] (CHO-K1, 10 μM agonist relative to 1% DMSO treatment), 62.57±3.4; in assay [10] it was 31.2±2.1 %; in assay [11], 25.9±1.0 %; in assay [12], 29.9±1.1 %. Further, the “Δ Imax” value in [3] (Imax (CHO-K1-A2AR) - Imax (CHO-K1)) is reported as -3.61±4.1. For the same compound, the “Δ pIC50” value in [3] (pIC50(CHO-K1-A2AR) - pIC50(CHO-K1)) was -0.03±0.1.

For `CC(C)NCC(O)c1ccc(O)c(O)c1` (stereo not shown) [isoprenaline], the “displacement of CA200645” value in assay [14] (competition with 300 nM CA200645) was “failed to displace CA200645”.

With CA200645, the “disassociation constant (KD) of CA200645 at the Nluc-A2AR” value in [14] (kinetic association then dissociation, 40 nM CA200645, HEK293 cells) was 0.065 µM.
